{"source": "patent US4738963A", "about": "“Method for the treatment of incontinence in mammals” (Beecham Group p.l.c., priority 1985, dated 1988)", "assay_type_in_all_cases": "cell-based", "key": {"[1]": {"tested_on": "Rat isolated portal vein", "assay": "Rat isolated portal vein: spontaneous contractions and contractions due to added calcium", "details": "0.25 h", "description": "(1) Rat isolated portal vein.\nMale Sprague Dawley rats (250-350) were killed by cervical dislocation. Portal veins (2-3 cm in length) were set up under 0.8-1 g tension in a 10 ml organ bath containing Krebs-Henseleit solution, at 37° C., of the following composition (mM): NaCl 118, NaHCO3 25, glucose 5, KH2 PO4 1.18, KCl 4.69, MgSO4 0.59, CaCl2.H2 O 1.87. The tissue was aerated with a 95% oxygen and 5% carbon dioxide mixture. Isometric tension was recorded using a Devices strain gauge and recorder. Each preparation was allowed 1 h to equilibrate before the addition of test compound. The ability of a compound to inhibit the contractions due to added calcium (3 mM CaCl2) was determined in tissues bathed in Krebs-Henseleit solution containing 0.05 mM CaCl2 (in order to reduce spontaneous contractions). Then percentage inhibition (mean± s.e.m.; 6-9 tissues) of the amplitude of the spontaneous contractions, and contractions due to added calcium, was determined after 15 min contact time with test compound."}, "[2]": {"tested_on": "Rabbit isolated mesenteric artery", "assay": "Rabbit isolated mesenteric artery: relaxation of contractions due to KCl", "details": "Oryctolagus cuniculus", "description": "(2) Rabbit isolated mesenteric artery.\nMesenteric arteries (3 mm rings) were removed from male New Zealand White rabbits and mounted, at a resting tension of 1.5-2.0 g, in a 10 ml organ bath containing a Ringer solution, at 37° C., of the following composition (mM): NaCl 120.8; KCl 5.9; CaCl2 2.5; MgCl2 1.2; HEPES 5.8; glucose 11.5. The bathing solution was bubbled with a 95% oxygen and 5% carbon dioxide mixture. Each preparation was allowed 1-11/2h to equilibrate before the addition of either 30 or 90 mM KCl to contract the tissue. The ability of test compound to relax the sustained contraction due to KCL was determined by assessing the % reduction (mean± s.e.m.; 4-9 tissues) produced by varying concentrations of test compound."}, "[3]": {"tested_on": "rat urinary bladder (detrusor) strip", "assay": "Rat Detrusor Strip Screen: inhibition of electrically induced isometric contractions", "description": "Rat Detrusor Strip Screen\nMale Wistar Charles River rats (Crl: WI BR) weighing 300-350 g were used.\nThe urinary bladder was removed and a longitudinal strip 3 mm wide was cut from the urethra to the apex of the bladder.\nThe strip was immediately immersed in a 20 ml bath containing Tyrode with double millimolar concentration of glucose (11.1 instead of 5.55) and with addition of sucrose (13.3 millimolar), kept at 37° C. and aerated with a mixture of O2 95% and CO2 5%.\nTyrode composition was (mM): NaCl 136.8, KCl 2.68, CaCl2 1.80, MgSO4.7H2 O 1.05, NaH2 PO4.H2 O 0.41, NaHCO3 11.9, glucose 11.1 sucrose 13.3. The strip was in direct contact with one of the two platinum electrodes placed on the top and bottom of the organ bath. Placed under an initial tension of 2 g, the strip was then allowed to relax until a baseline of about 1 g. After a 5 min equilibration period isometric contractions were induced by a GRASS S88 2 channel stimulator using the following parameters trains of pulses of 2 sec duration each every 100 sec; square wave pulse of volts (60-70); duration 0.7 ms and 30 Hz.\nWhen the contractions became constant (60-90 min), the strips were exposed to the test compound. The isometric contractions were measured with a Basile DYl force transducer connect to Battaglia Rangoni 4 channel recorder. The results are expressed as per cent of contraction inhibition."}}, "note": "Like-named read-outs stand apart in the source and are kept apart here."}
{"smiles": "CC1(C)Oc2ccc(C#N)cc2[C@@H](N2CCCC2=O)[C@@H]1O", "note": "(relative stereo) [Compound 1, 6-cyano-3,4-dihydro-2,2-dimethyl-trans-4-(2-oxo-1-pyrrolidinyl)-2H-benzo[b]pyran-3-ol]", "values": [{"measurement": "IC50", "setting": "[1]; amplitude of spontaneous contractions, 15 min contact time, read-out: IC50 Spontaneous (contractions)", "result": 0.12, "unit": "µM"}, {"measurement": "IC50", "setting": "[1]; contractions due to added calcium (3 mM CaCl2) in Krebs-Henseleit with 0.05 mM CaCl2, 15 min contact time, read-out: IC50 Ca^2+ (3 mM)", "result": 0.15, "unit": "µM"}, {"measurement": "IC50", "setting": "[2]; sustained contraction due to 30 mM KCl, read-out: IC50 30 mM KCl", "result": 0.51, "unit": "µM"}, {"measurement": "IC50", "setting": "[2]; sustained contraction due to 90 mM KCl, read-out: IC50 90 mM KCl", "result": "> 10", "unit": "µM"}, {"measurement": "Mean % inhibition", "setting": "[3]; Molar Conc 1 × 10^-5", "result": -46.4, "unit": "%"}]}
{"smiles": "CC1(C)Oc2ccc(C#N)cc2[C@@H](N2CCCCC2=O)[C@@H]1O", "note": "(relative stereo) [Compound 3]", "values": [{"measurement": "Mean % inhibition", "setting": "[3]; Molar Conc 1 × 10^-6", "result": -34.2, "unit": "%"}]}
{"smiles": "CC(=O)N[C@@H]1c2cc(C#N)ccc2OC(C)(C)[C@H]1O", "note": "(relative stereo) [Compound 4, trans-4-N-acetylamino-6-cyano-3,4-dihydro-2,2-dimethyl-2H-benzo[b]pyran-3-ol]", "values": [{"measurement": "Mean % inhibition", "setting": "[3]; Molar Conc 3 × 10^-5", "result": -32.9, "unit": "%"}]}
{"smiles": "CC1(C)Oc2ccc(C#N)cc2[C@@H](N2CCNCC2=O)[C@@H]1O", "note": "(relative stereo) [Compound 5, 6-cyano-3,4-dihydro-2,2-dimethyl-trans 4-(2-oxo-1-piperazinyl)-2H-benzo[t]pyran-3-ol]", "values": [{"measurement": "Mean % inhibition", "setting": "[3]; Molar Conc 1 × 10^-5", "result": -37.2, "unit": "%"}]}
{"smiles": "CNC(=O)N[C@@H]1c2cc(C#N)ccc2OC(C)(C)[C@H]1O", "note": "(relative stereo) [Compound 6, trans-6-cyano-3,4-dihydro-2,2-dimethyl-4-(N-methylureido)-2H-1-benzo[b]pyran-3-ol]", "values": [{"measurement": "Mean % inhibition", "setting": "[3]; Molar Conc 3 × 10^-5", "result": -44.2, "unit": "%"}]}
{"smiles": "CC1(C)C=C(N2CCCC2=O)c2cc(C#N)ccc2O1", "note": "[Compound 2, 6-cyano-2,2-dimethyl-4-(2-oxo-1-pyrrolidinyl)-2H-1-benzopyran]", "values": [{"measurement": "Mean % inhibition", "setting": "[3]; Molar Conc 1 × 10^-5", "result": -59.7, "unit": "%"}]}
